Test results from patent publication US4452812A, “Organic complex of platinum, its preparation and its use for treating malignant tumors” (Sanofi, priority 1980, dated 1984).

Tested on: baboon
Experiment: Preliminary toxicological study in the baboon
Assay type: in vivo
Design: creatine level / Granulocytes / Platelets: unit not given here
Description: In order to find out the maximum tolerable dose, two baboons, identified by no 1 and no 2, received 100 mg/kg and 150 mg/kg respectively without prehydration. Hydration was performed on baboon no 3 which received a dose of 200 mg/kg.
The compound was injected into the femoral vein during 5 to 10 minutes. Baboon No. 3 (200 mg/kg) received 700 ml of physiological serum by intravenous route. Baboons Nos. 1 and 2 received 1000 ml by sub-cutaneous route.
Gastro-intestinal toxicity was the first type of toxicity to appear and generally manifested itself 1 to 2 hours after injection of the compound. […] D0 was the day of treatment and a sample was taken before the compound was injected.
The results on D0 were therefore control values.

[1] = baboon No 1, 100 mg/kg i.v., D2
[2] = baboon No 1, 100 mg/kg i.v., D6
[3] = baboon No 1, 100 mg/kg i.v., D16
[4] = baboon No 1, 100 mg/kg i.v., D30
[5] = baboon No 1, 100 mg/kg i.v., D37
[6] = baboon No 1, 100 mg/kg i.v., D38
[7] = baboon No 1, 100 mg/kg i.v., D41
[8] = baboon No 1, 100 mg/kg i.v., D48
[9] = baboon No 1, 100 mg/kg i.v., D57
[10] = baboon No 1, 100 mg/kg i.v., D62
[11] = baboon No 1, 100 mg/kg i.v., D76
[12] = baboon No 1, 100 mg/kg i.v., D79
[13] = baboon No 1, 100 mg/kg i.v., D85
[14] = baboon No 1, 100 mg/kg i.v., D90
[15] = baboon No 1, 100 mg/kg i.v., D100
[16] = baboon No 1, 100 mg/kg i.v., D105
[17] = baboon No 1, 100 mg/kg i.v., D106
[18] = baboon No 1, 100 mg/kg i.v., D111
[19] = baboon No 1, 100 mg/kg i.v., D122
[20] = baboon No 1, 100 mg/kg i.v., D129
[21] = baboon No 1, 100 mg/kg i.v., D134
[22] = baboon No 1, 100 mg/kg i.v., D140
[23] = baboon No 2, 150 mg/kg i.v., D1
[24] = baboon No 2, 150 mg/kg i.v., D4
[25] = baboon No 2, 150 mg/kg i.v., D11
[26] = baboon No 3, 200 mg/kg i.v., D4
[27] = baboon No 3, 200 mg/kg i.v., D6
[28] = baboon No 3, 200 mg/kg i.v., D12
[29] = baboon No 3, 200 mg/kg i.v., D15
[30] = baboon No 3, 200 mg/kg i.v., D18
[31] = baboon No 3, 200 mg/kg i.v., D24
[32] = baboon No 3, 200 mg/kg i.v., D30
[33] = baboon No 3, 200 mg/kg i.v., D40

NC1CCCCC1N.O=C([O-])CC(C(=O)[O-])C([O-])C(=O)[O-].[H+].[H+].[Pt+2] (stereo not drawn) [PHIC, cis-isocitrato (1,2-diaminocyclohexane) platinum (II)]
nephrotoxic effect (100 mg/kg i.v., absence of hydration): no nephrotoxic effect was observed
day on which creatinine levels return to normal values (200 mg/kg i.v. with hydration): 18 days
nephrotoxicity (200 mg/kg i.v. with hydration): nephtotoxicity is detected
vomiting (severity) (100-200 mg/kg i.v.): vomiting was not profuse
Quick plasma prothrombin time (baboon No 1, 100 mg/kg i.v., D1): 75%
Creatinine [1]: 110 μmols/l
Fibrinogen I [1]: 2.25 g/L
Quick plasma prothrombin time [1]: 80%
Creatinine [2]: 91 μmols/l
Fibrinogen I [2]: 2.40 g/L
Granulocytes [2]: 2480
Platelets [2]: 526000
Proaccelerin V [2]: 100%
Proconvertin VII + Stuart factor X [2]: 70%
Prothrombin II [2]: 95%
Quick plasma prothrombin time [2]: 65%
Weight [2]: 7.7 kg
Creatinine [3]: 105 μmols/l
Fibrinogen I [3]: 1.95 g/L
Granulocytes [3]: 4560
Platelets [3]: 414000
Quick plasma prothrombin time [3]: 95%
Weight [3]: 8.4 kg
Creatinine [4]: 138 μmols/l
Fibrinogen I [4]: 1.52 g/L
Granulocytes [4]: 3969
Platelets [4]: 414000
Quick plasma prothrombin time [4]: 85%
Creatinine [5]: 99 μmols/l
Fibrinogen I [5]: 1.46 g/L
Granulocytes [5]: 2989
Platelets [5]: 362000
Quick plasma prothrombin time [5]: 85%
Weight [5]: 8.35 kg
Creatinine [6]: 85 μmols/l
Fibrinogen I [6]: 1.85 g/L
Granulocytes [6]: 4824
Platelets [6]: 299000
Quick plasma prothrombin time [6]: 85%
Creatinine [7]: 102 μmols/l
Fibrinogen I [7]: 2.72 g/L
Granulocytes [7]: 4212
Platelets [7]: 371000
Quick plasma prothrombin time [7]: 100%
Creatinine [8]: 136 μmols/l
Fibrinogen I [8]: 2.70 g/L
Granulocytes [8]: 3696
Platelets [8]: 708000
Quick plasma prothrombin time [8]: 95%
Weight [8]: 7.6 kg
Creatinine [9]: 96 μmols/l
Fibrinogen I [9]: 2.67 g/L
Granulocytes [9]: 2498
Platelets [9]: 329000
Quick plasma prothrombin time [9]: 90%
Weight (baboon No 1, 100 mg/kg i.v., D58): 8.45 kg
Creatinine [10]: 136 μmols/l
Fibrinogen I [10]: 1.86 g/L
Granulocytes [10]: 3726
Platelets [10]: 378000
Quick plasma prothrombin time [10]: 50%
Creatinine [11]: 121 μmols/l
Fibrinogen I [11]: 1.75 g/L
Granulocytes [11]: 1071
Platelets [11]: 375000
Quick plasma prothrombin time [11]: 95%
Creatinine [12]: 138 μmols/l
Fibrinogen I [12]: 2.10 g/L
Granulocytes [12]: 2541
Platelets [12]: 382000
Quick plasma prothrombin time [12]: 95%
Weight (baboon No 1, 100 mg/kg i.v., D84): 7.93 kg
Creatinine [13]: 97 μmols/l
Fibrinogen I [13]: 2.08 g/L
Granulocytes [13]: 3599
Platelets [13]: 549000
Proaccelerin V [13]: 100%
Proconvertin VII + Stuart factor X [13]: 90%
Quick plasma prothrombin time [13]: 85%
Creatinine [14]: 96 μmols/l
Granulocytes [14]: 1917
Platelets [14]: 685000
Creatinine [15]: 110 μmols/l
Fibrinogen I [15]: 2.50 g/L
Granulocytes [15]: 3230
Platelets [15]: 340000
Quick plasma prothrombin time [15]: 95%
Creatinine [16]: 60 μmols/l
Fibrinogen I [16]: 2.25 g/L
Granulocytes [16]: 2030
Platelets [16]: 266000
Quick plasma prothrombin time [16]: 95%
Weight [16]: 8.59 kg
Creatinine [17]: 120 μmols/l
Fibrinogen I [17]: 2.20 g/L
Granulocytes [17]: 10120
Platelets [17]: 231000
Quick plasma prothrombin time [17]: 75%
Creatinine [18]: 102 μmols/l
Fibrinogen I [18]: 2.20 g/L
Granulocytes [18]: 1121
Platelets [18]: 345000
Proaccelerin V [18]: 100%
Proconvertin VII + Stuart factor X [18]: 39%
Prothrombin II [18]: 70%
Quick plasma prothrombin time [18]: 48%
Fibrinogen I [19]: 2.10 g/L
Granulocytes [19]: 1232
Platelets [19]: 348000
Quick plasma prothrombin time [19]: 100%
BUN (baboon No 1, 100 mg/kg i.v., D122, normal range 3-7 mmol/l): 4.5 mmol/L
Creatinine [20]: 90 μmols/l
Fibrinogen I [20]: 2.15 g/L
Granulocytes [20]: 5406
Platelets [20]: 508000
Quick plasma prothrombin time [20]: 100%
Weight (baboon No 1, 100 mg/kg i.v., D133): 7.65 kg
Creatinine [21]: 126 μmols/l
Granulocytes [21]: 7245
Platelets [21]: 580000
Creatinine [22]: 114 μmols/l
Fibrinogen I [22]: 2.50 g/L
Granulocytes [22]: 4794
Platelets [22]: 441000
Quick plasma prothrombin time [22]: 100%
creatine level (baboon No 2, 150 mg/kg i.v.): 1552
death (baboon No 2, 150 mg/kg i.v.): died on D11
food and water intake (baboon No 2, 150 mg/kg i.v.): neither eaten nor drunk for 11 days
Creatinine [23]: 96 μmols/l
Fibrinogen I [23]: 1.46 g/L
Granulocytes [23]: 9672
Platelets [23]: 261000
Proaccelerin V [23]: 70%
Proconvertin VII + Stuart factor X [23]: 62%
Prothrombin II [23]: 42%
Quick plasma prothrombin time [23]: 60%
Creatinine [24]: 245 μmols/l
Fibrinogen I [24]: 2.82 g/L
Granulocytes [24]: 1988
Platelets [24]: 212000
Quick plasma prothrombin time [24]: 85%
Creatinine [25]: 1552 μmols/l
Fibrinogen I [25]: 4.20 g/L
Granulocytes [25]: 555
Platelets [25]: 174000
Proaccelerin V [25]: 100%
Proconvertin VII + Stuart factor X [25]: 55%
Prothrombin II [25]: 55%
Quick plasma prothrombin time [25]: 55%
Weight [25]: 5.5 kg
Creatinine [26]: 140 μmols/l
Fibrinogen I [26]: 2.70 g/L
Granulocytes [26]: 4536
Platelets [26]: 70000
Proaccelerin V [26]: 100%
Proconvertin VII + Stuart factor X [26]: < 5%
Prothrombin II [26]: 30%
Quick plasma prothrombin time [26]: 10%
Weight [26]: 6.25 kg
Creatinine [27]: 350 μmols/l
Fibrinogen I [27]: 3.00 g/L
Granulocytes [27]: 5236
Platelets [27]: 208000
Proaccelerin V [27]: 100%
Proconvertin VII + Stuart factor X [27]: 25%
Prothrombin II [27]: 25%
Quick plasma prothrombin time [27]: 30%
Creatinine [28]: 646 μmols/l
Fibrinogen I [28]: 4.80 g/L
Granulocytes [28]: 7905
Platelets [28]: 241000
Quick plasma prothrombin time [28]: 85%
Weight [28]: 5.31 kg
Creatinine [29]: 265 μmols/l
Fibrinogen I [29]: 3.85 g/L
Granulocytes [29]: 3550
Platelets [29]: 114000
Quick plasma prothrombin time [29]: 90%
Creatinine [30]: 118 μmols/l
Fibrinogen I [30]: 2.60 g/L
Granulocytes [30]: 722
Platelets [30]: 312000
Quick plasma prothrombin time [30]: 100%
Creatinine [31]: 97 μmols/l
Fibrinogen I [31]: 2.00 g/L
Granulocytes [31]: 4872
Platelets [31]: 366000
Quick plasma prothrombin time [31]: 100%
Weight [31]: 5.6 kg
Creatinine [32]: 104 μmols/l
Fibrinogen I [32]: 2.25 g/L
Granulocytes [32]: 10752
Platelets [32]: 457000
Quick plasma prothrombin time [32]: 95%
Weight [32]: 5.9 kg
Creatinine [33]: 94 μmols/l
Fibrinogen I [33]: 1.50 g/L
Granulocytes [33]: 4731
Platelets [33]: 299000
Quick plasma prothrombin time [33]: 95%
Weight [33]: 6.33 kg
toxicity (in words) (baboons): Extremely low toxicity
